Test results from patent publication US10814013B2, “Efficient synthesis of chelators for nuclear imaging and radiotherapy: compositions and applications” (The Board of Regents of the University of Texas System, priority 2006, dated 2020).

Tests used:
tumor cells = assay: Cellular uptake of ^99mTc-EC-G in tumor cells; format: cell-based
Experimental: (§1) To further validate EC-G biological activity, in vitro cell culture assays were performed. Briefly, the cellular uptake was determined in tumor cells (50,000 cells/well) incubated with ^99mTc-EC-G (2 μCi/well) at various time intervals. […] There was a 10-15% decrease in cellular uptake using ^99mTc-EC-G after 2-4 weeks. The useful life of EC-G in water appears to be 17.26 days.

[1] = In vitro stability of EC-G dissolved in water; format: physicochemical
Experimental: as §1

[2] = In vivo imaging studies of EC-G; settings: comparison of aqueous and organic synthesized EC-G
New Zealand white rabbit = assay: PET imaging in a New Zealand white rabbit; format: in vivo; settings: PET coronal images 45 minutes after injection of 0.66 mCi
Experimental: The numbers are heart/upper mediastinum (H/UM) count density (count/pixel) ratios at 15-45 minutes. […] A rabbit was administered ^68Ga-EC-trimethyl lysine (EC-TML). PET coronal images were acquired at 45 minutes after injection of 0.66 mCi of ^68Ga-EC-TML (dorsal to ventral order).

human lymphoma cells = assay: [^3H]Thymidine incorporation assay using Re-EC-G and a lymphoma cell line; format: cell-based; settings: in vitro cell culture, dose response curve (FIG. 3)

## N,N′-ethylenedicysteine-glucosamine [EC-G]
Tumor cells; comparison of aqueous and organic synthesized EC-G
  in vitro uptake, aqueous versus organic synthesized EC-G: no marked difference
Tumor cells; tumor cells 50,000 cells/well, ^99mTc-EC-G 2 μCi/well, various time intervals (FIG. 4)
  cellular uptake, raw (unpurified) EC-G versus prep-HPLC purified EC-G: no marked difference
[1]
  useful life of EC-G in water: 17.26 days
[2]
  in vivo imaging, EC-G from aqueous versus organic synthesis: no marked difference

## ^68Ga-EC-trimethyl lysine [^68Ga-EC-TML]
New Zealand white rabbit
  uptake in the heart: High uptake

## rhenium-ethylenedicysteine-glucosamine [Re-EC-G]
Human lymphoma cells
  activity against human lymphoma cells: effective
